Measured values reported in US4022900A, “Compositions containing 1,2,3,4-tetrahydroisoquinolines used as hypotensive agents” (Marion Laboratories, Inc., priority 1972, dated 1977).
Structures can show the parent of a compound that is named as a salt. Where two headings read alike, the source gives them in different places.

How the values were obtained:
[1] = system: systolic blood pressure of deoxycorticosterone acetate hypertensive rats; assay: Hypotensive activity in DCA/saline hypertensive rats (systolic blood pressure, tail cuff); format: in vivo, rat (male, CD strain); conditions: for Percent Change in Pressure from Control ± S.E., 1 Hour / Percent Change in Pressure from Control ± S.E., 2 Hours / Percent Change in Pressure from Control ± S.E., 4 Hours / Percent Change in Pressure from Control ± S.E., 24 Hours: 50 mg/kg i.p., systolic pressure, * <0.05 significance (Newman-Keuls); for Lowering of Blood Pressure in Hypertensive rate in mm's of Hg., 1 hr. / Lowering of Blood Pressure in Hypertensive rate in mm's of Hg., 2 hrs. / Lowering of Blood Pressure in Hypertensive rate in mm's of Hg., 4 hrs. / Lowering of Blood Pressure in Hypertensive rate in mm's of Hg., 24 hrs. / compounds which appear most active from Table I: 50 mg/kg intraperitoneal; for Lowering of Blood Pressure in Hypertensive rate in mm's of Hg., 1 hr. / Lowering of Blood Pressure in Hypertensive rate in mm's of Hg., 2 hrs. / Lowering of Blood Pressure in Hypertensive rate in mm's of Hg., 4 hrs. / Lowering of Blood Pressure in Hypertensive rate in mm's of Hg., 24 hrs.: change vs predrug control, six rats; for compounds which appear most active from Table I: qualitative ranking
Description: Hypertension was produced in weanling (30-day old) male rats of the CD strain obtained from the Charles River Breeding Laboratories (Wilmington, Mass.) by subcutaneously implanting about the dorsal surface of the neck a pellet of deoxycorticosterone acetate (DCA) containing 10 mg DCA in a mixture of Carbowax 4000 (Union Carbide) and Flexowax C light (Glyco Products). Their drinking water was replaced by a 1% sodium chloride solution, a procedure known to facilitate the development of an experimental hypertension, and they had free access to chow. Systolic blood pressure in the caudal arteries was measured indirectly by a pneumatic pulse transducer and a tail pressure cuff on a Physiograph Four recorder (Narco Bio-Systems, Inc., Houston, Texas) in unanesthetized but restrained rats prewarmed to 40° C., 10-15 minutes prior to the determination. The rats were kept at a temperature of 40° C. for all determinations of systolic pressure in an attempt to minimize variations in blood pressure due to marked changes in arterial tone caused by changes in temperature. Blood pressures were measured at intervals in the DCA-treated rats given saline and in non-treated control rats. After 20 days, the mean systolic pressure in the DCA-treated rats was above 150 mm Hg. Hypertension was regarded as being established in the rats at this stage and they were at intervals, usually beginning with the 30th day after DCA-implant in testing for hypotensive activity. Following a series of control blood pressure readings, a dose of 50 mg/kg of the compound under investigation was administered by intraperitoneal injection either in solution or as a suspension in 1% tragacanth solution to groups of six hypertensive rats. Blood pressures were redetermined at 1, 2, 4 and 24 hour periods following injection. At each interval, the systolic pressure was measured a minimum of five times in each rat and the average value was calculated. Mean values for the group were calculated from the individual average values and compared with their predrug control levels. The statistical significance of the changes produced by the compounds, in the doses employed, was tested by the "t" test as well as by an analysis of variance. The reductions in blood pressure obtained with the indicated representative tetrahydroisoquinoline compounds are shown in Table I. The code number for the compound and the example herein showing its preparation are both given in Table I.
(§1) Additional compounds have been tested. The toxicity data for the additional compounds tested, and their identity, is given in the following Table II while the blood pressure lowering activity of the compounds is given in the following Table III. The heading "Example Number" in the tables refers to the working example herein which discloses the compounds and its preparation. The test procedure used for determining the blood pressure lowering activity of the compounds is the same as that previously set forth herein. However, the figures in Table III are expressed as percentage change in blood pressure, rather than in mm of mercury change in blood pressure, as presented in Table I herein.

[2] = Acute toxicity (LD50) in the mouse; conditions: in vivo; for LD50 at 24 h: ip, read-out: Approximate Acute Toxicity (24 hrs.) In the Mouse, LD50; for LD50: Table I, unit, species and route not given
Description: 5-(3,4,5-trimethoxybenzamido)-2-methyl-1,2,3,4-tetrahydroisoquinoline (M-20) in mice has an LD-50 of about 125 to 250 mg/kg intraperitoneally.
as §1
Approximate Acute Toxicity (24 hrs.)
(a) Suspension in 1% tragacanth
(b) Solution in distilled water
(c) Solubilized with the aid of dilute acid

[3] = solubilized with the aid of dilute acid

Row | SMILES | Percent Change in Pressure from Control ± S.E., 1 Hour [1] [%] | Percent Change in Pressure from Control ± S.E., 2 Hours [1] [%] | Percent Change in Pressure from Control ± S.E., 4 Hours [1] [%] | Percent Change in Pressure from Control ± S.E., 24 Hours [1] [%] | LD50 at 24 h [2, 3] [mg/kg] | Lowering of Blood Pressure in Hypertensive rate in mm's of Hg., 1 hr. [1] | Lowering of Blood Pressure in Hypertensive rate in mm's of Hg., 2 hrs. [1] | Lowering of Blood Pressure in Hypertensive rate in mm's of Hg., 4 hrs. [1] | Lowering of Blood Pressure in Hypertensive rate in mm's of Hg., 24 hrs. [1] | LD50 [2] [mg/kg] | compounds which appear most active from Table I [1] | LD50 at 24 h ([2]; suspension in 1% tragacanth) [mg/kg] | LD50 at 24 h ([2]; solution in distilled water) [mg/kg]
1 | CCc1cccc(CC)c1C(=O)Nc1cccc2c1CCN(C)C2 [M-66, 5-(2,6-Diethylbenzamido)-2-methyl-1,2,3,4-tetrahydroisoquinoline] | -5.7 ± 3.0 | -7.5 ± 4.6 | -6.1 ± 2.8 | -2.1 ± 2.3 | 125 to 250 | – | – | – | – | – | – | – | –
2 | CN1CCc2c(cccc2NC(=O)c2ccccc2F)C1 [M-68, 5-(2-Fluorobenzamido)-2-methyl-1,2,3,4-tetrahydroisoquinoline] | – | – | – | – | – | -13±5 mm's of Hg | -10±5 mm's of Hg | -11±4 mm's of Hg | -20±4 mm's of Hg | 250 to 500 | – | – | –
3 | COc1cc(C(=O)Nc2ccc3c(c2)CN(C)CC3)cc(OC)c1OC [M-59, 7-(3,4,5-Trimethoxybenzamido)-2-methyl-1,2,3,4-tetrahydroisoquinoline] | – | – | – | – | – | -60±7 mm's of Hg | -46±7 mm's of Hg | -34±6 mm's of Hg | -18±7 mm's of Hg | 250 to 500 | most active | – | –
4 | CN1CCc2c(cccc2NC(=O)c2ccccc2I)C1 [M-70, 5-(2-Iodobenzamido)-2-methyl-1,2,3,4-tetrahydroisoquinoline] | -6.8 ± 2.1 | -9.9 ± 2.1 | -5.7 ± 1.9 | -0.7 ± 2.9 | < 31 | – | – | – | – | – | – | – | –
5 | CCCN1CCc2c(cccc2NC(=O)c2ccc(OC)c(OC)c2)C1 [M-47, 5-(3,4-Dimethoxybenzamido)-2-n-propyl-1,2,3,4-tetrahydroisoquinoline] | – | – | – | – | – | -35±7 mm's of Hg | -46±11 mm's of Hg | -41±8 mm's of Hg | -22±4 mm's of Hg | 250 to 500 | most active | – | –
6 | CN1CCc2c(cccc2NC(=O)c2ccccc2[N+](=O)[O-])C1 [M-69, 5-(2-Nitrobenzamido)-2-methyl-1,2,3,4-tetrahydroisoquinoline] | – | -4.1 ± 3.0 | -3.3 ± 4.0 | -1.0 ± 3.0 | 125 to 250 | – | – | – | – | – | – | – | –
7 | COc1cc(C(=O)Nc2cccc3c2CN(C)CC3)cc(OC)c1OC [M-65, 8-(3,4,5-Trimethoxybenzamido)-2-methyl-1,2,3,4-tetrahydroisoquinoline] | – | – | – | – | – | -55±10 mm's of Hg | -44±8 mm's of Hg | -27±3 mm's of Hg | -21±7 mm's of Hg | 250 to 500 | most active | – | –
8 | CCCN1CCc2c(cccc2NC(=O)c2ccc(OC)cc2)C1 [M-50, 5-(4-methoxybenzamido)-2-n-propyl-1,2,3,4-tetrahydroisoquinoline] | -11.3 ± 1.9 | -17.8 ± 1.4 | -10.2 ± 2.8 | -6.2 | 125 to 250 | – | – | – | – | – | – | – | –
9 | CN1CCc2c(cccc2NC(=O)c2ccccc2Cl)C1 [M-63, 5-(2-Chlorobenzamido)-2-methyl-1,2,3,4-tetrahydroisoquinoline] | – | – | – | – | – | -25±2 mm's of Hg | -36±4 mm's of Hg | -34±4 mm's of Hg | -28±4 mm's of Hg | 125 to 188 | most active | – | –
10 | COc1cc(C(=O)Nc2cccc3c2CCNC3)cc(OC)c1OC [M-46, 5-(3,4,5-Trimethoxybenzamido)-1,2,3,4-tetrahydroisoquinoline HCl] | – | – | – | – | – | -26±10 mm's of Hg | -25±7 mm's of Hg | -11±4 mm's of Hg | -18±4 mm's of Hg | 250 to 500 | – | – | –
11 | COc1ccc(C(=O)Nc2cccc3c2CCNC3)cc1OC [M-34, 5-(3,4-Dimethoxybenzamido)-1,2,3,4-tetrahydroisoquinoline HCl] | – | – | – | – | – | -33±5 mm's of Hg | -28±7 mm's of Hg | -23±4 mm's of Hg | -2±6 mm's of Hg | 500 to 1000 | most active | – | –
12 | COc1cccc(OC)c1C(=O)Nc1cccc2c1CCN(C)C2 [M-57, 5-(2,6-Dimethoxybenzamido)-2-methyl-1,2,3,4-tetrahydroisoquinoline] | – | – | – | – | – | -2±8 mm's of Hg | -7±5 mm's of Hg | -14±10 mm's of Hg | -14±10 mm's of Hg | 250 to 500 | – | – | –
13 | COc1ccc(C(=O)Nc2cccc3c2CCNC3)cc1 [M-44, 5-(4-Methoxybenzamido)-1,2,3,4-tetrahydroisoquinoline HCl] | -8.8 ± 4.8 | -6.5 ± 3.7 | -8.3 ± 2.4 | -6.4 ± 1.3 | – | – | – | – | – | – | – | 500 to 1000 | –
14 | CN1CCc2c(cccc2NC(=O)c2ccccc2)C1 [M-54, 5-(benzamido)-2-methyl-1,2,3,4-tetrahydroisoquinoline] | – | – | – | – | – | -7±7 mm's of Hg | -14±6 mm's of Hg | -15±6 mm's of Hg | -10±3 mm's of Hg | 125 to 250 | – | – | –
15 | COc1cc(C(=O)Nc2ccc3c(c2)CCN(C)C3)cc(OC)c1OC [M-72, 6-(3,4,5-Trimethoxybenzamido)-2-methyl-1,2,3,4-tetrahydroisoquinoline HCl] | -21.6 ± 1.7 | -19.4 ± 4.0 | -11.9 ± 3.4 | -3.8 ± 1.3 | – | – | – | – | – | – | – | – | 188 to 250
16 | COc1ccc(C(=O)Nc2cccc3c2CCN(C)C3)cc1 [M-56, 5-(4-Methoxybenzamido)-2-methyl-1,2,3,4-tetrahydroisoquinoline] | – | – | – | – | – | -14±5 mm's of Hg | -30±8 mm's of Hg | -19±6 mm's of Hg | -18±4 mm's of Hg | 62 to 125 | – | – | –
